Read-outs that look alike come from different tables or passages of the source.
Legend:
[1] = target: T1, trypsin-like activity of the 26S proteasome (Homo sapiens, UniProt Q99436); assay: Proteasome assay, trypsin-like (T-L) activity, SUC-RLR-AMC, Jurkat cell lysate; format: biochemical; conditions: Table 2, P1 analogues; ± S.D.; read-out: Proteasome Inhibition T-L-like IC50
T1 construct: endogenous in cells; host or cells: Jurkat (ATCC TIB-152, E6-1 clone) cell lysate
T1 sequence (Q99436 44-277): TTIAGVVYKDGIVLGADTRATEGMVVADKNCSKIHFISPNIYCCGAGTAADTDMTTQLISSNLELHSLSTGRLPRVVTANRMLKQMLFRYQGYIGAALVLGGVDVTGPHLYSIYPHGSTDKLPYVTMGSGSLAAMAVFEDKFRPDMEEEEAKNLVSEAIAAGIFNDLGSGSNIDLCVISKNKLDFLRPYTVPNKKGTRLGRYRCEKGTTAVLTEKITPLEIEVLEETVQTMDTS
Procedure: The lysate was stored at −80° C. until the sample was used for the proteasome assay.
(§1) The compounds were diluted with lysis buffer; 10 μL of the compound-containing solution was added to the test wells at ten times the final concentration. […] The results are reported as the average of at least 3 technical replicates of IC50 values for proteasome inhibition.

[2] = target: T2, yeast proteasome yβ2 subunit (Saccharomyces cerevisiae, UniProt P25043+P25451); assay: Subunit selectivity, purified yeast proteasome yβ2; format: biochemical
T2 construct: measured using 8 μg/mL of purified yCP or iCP
Procedure: as §1
Values and standard deviations were calculated from an assay performed in biological triplicate.

[3] = target: T3, ChT-L activity of 26S proteasomes in intact MCF-7 cells (Homo sapiens, UniProt P28074); assay: Cell infiltration of PIs: proteasome inhibition in intact MCF7 cells; format: cell-based; conditions: intact MCF-7 cells treated, washed, lysed
T3 construct: endogenous in cells; host or cells: MCF7 cells (treated intact, then lysed)
T3 sequence (P28074 60-263): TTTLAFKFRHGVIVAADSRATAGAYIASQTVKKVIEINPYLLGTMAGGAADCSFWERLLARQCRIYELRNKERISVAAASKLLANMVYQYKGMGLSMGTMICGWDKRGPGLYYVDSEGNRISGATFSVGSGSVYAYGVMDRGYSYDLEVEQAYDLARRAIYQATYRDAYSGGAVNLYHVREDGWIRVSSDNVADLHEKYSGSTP
Procedure: 100 μL MCF7 cells at a concentration of 500,000 cells/mL were added to a 96 well microtiter plate and incubated overnight at 37° C. and 5% CO2 to allow cells to adhere at 100% confluency. The cells were treated and then incubated for at 37° C. and 5% CO2 for 1 hour as a standard time to allow for drug infiltration. […] The plate was rocked on ice for 1 hr and then 90 μL of cell lysate was transferred to a black 96 well microtiter plate. 10 μL of lysis buffer was added to the top of all wells containing treated cells and one set of control wells. 10 μL of 1 mM of compound 8 was added to the second set of control wells as a positive control for proteasome inhibition. The plate was then incubated at 37° C. for 15 minutes to allow for control drug binding. Chymotrypsin-like activity was then measured by adding 10 μL of 100 μM Suc-LLVY-AMC in lysis buffer to each well and then incubating for 1 h at 37° C. […] Standard deviation for cell infiltration was calculated by propagating the error from the two IC50 values.
The difference between proteasome inhibition within intact versus lysed cells was evaluated as a representative measure of PIs ability to infiltrate cells and access intracellular proteasomes. […] Assays were performed in biological triplicate, and the data points are reported with the corresponding standard deviations. […]

[4] = target: T4, ChT-L activity of the 26S proteasome (Homo sapiens, UniProt P28074); assay: Proteasome inhibition after pre-incubation with newborn bovine serum; format: in vitro ADME; conditions: pre-incubation 1 hour at 37° C. with NBS
T4 sequence (P28074 60-263): T3 sequence (P28074 60-263)
Procedure: EDTA chelates divalent metal ions. By including EDTA during the pre-incubation step, EDTA protected compound 8 from being deactivated by NBS, shown by low proteasome activity below 5 nM of compound 8.
The assays were performed in biological triplicate, and the data points are reported with the corresponding standard deviations.

[5] = tested on: Jurkat cells; assay: Cell cycle assay (flow cytometry); format: cell-based, human
Procedure: Vybrant® DyeCycle™ Orange Stain was used for the cell cycle assay. The amount of fluorescence of DNA was used as a relative measure of a cell's stage in the cell cycle. 500,000 Jurkat cells were added to wells on a 24 well microtiter plate in 1 mL of supplemented RPMI media. The cells were then treated with Compound 1 (TABLE 2). Using the cells treated for 12 and 24 hours, stained DNA fluorescence was measured via flow cytometry. The cells were taken from each well, pelleted briefly, aspirated, resuspended in 300 μL of 2 μL/mL Vybrant® DyeCycle™ Orange Stain, incubated at 37° C. for 15 minutes, and analyzed by flow cytometry. Selecting whole cells based on forward and side scatter, stained DNA fluorescence was excited at 488 nm and measured at an emission wavelength of 585 nm, using amount of fluorescence as a means of distinguishing between populations of cells. Populations were identified as G1 for the peak associated with the lowest amount of fluorescence, S phase for increased fluorescence appearing as a shoulder off of the G1 peak, and G2/M for approximately 2 times the fluorescence as the G1 peak. Measurements were taken in biological triplicate and confirmed in technical triplicate.

[6] = tested on: MCF7 cells; assay: MTT assay cytotoxicity MCF7; conditions: Homo sapiens
[7] = tested on: RPMI 8226 cells; assay: MTT assay cytotoxicity RPMI 8226; conditions: Homo sapiens
[8] = tested on: MDA-MB-231 cells; assay: MTT assay cytotoxicity MDA-MB-231; conditions: Homo sapiens

CC[C@H](C)[C@@H]1C(=O)O[C@H]1C(=O)N[C@H](C(=O)N[C@H](C(=O)OCc1ccccc1)C(C)C)C(C)C [Compound 8, Benzyl ((2R,3S)-3-((S)-sec-butyl)-4-oxooxetane-2-carbonyl)-L-valyl-L-valinate]
IC50 [1]: 1520 ± 788 nM
IC50 [2]: 26100 ± 2380 nM
times more active than compound 1, proteasome inhibition in intact cells [3]: approximately 10 times
deactivation by newborn bovine serum [4]: deactivates compound 8
cell cycle arrest [5]: cell cycle arrest in the G2/M phase
IC50 ([6]; MCF7, 48 h, read-out: Cytotoxicity MCF7 IC50): 1410 ± 687 nM
IC50 ([6]; MCF7, read-out: Cytotoxicity MCF7 IC50): 1850 ± 261 nM
IC50 ([7]; RPMI-8226, 48 h, read-out: Cytotoxicity RPMI 8226 IC50): 201 ± 82 nM
IC50 ([7]; RPMI-8226, read-out: Cytotoxicity RPMI 8226 IC50): 192 ± 32.3 nM
IC50 ([8]; MDA-MB-231, 48 h, read-out: Cytotoxicity MDA-MB-231 IC50): 359 ± 72 nM
IC50 ([8]; MDA-MB-231, read-out: Cytotoxicity MDA-MB-231 IC50): 380 ± 18.8 nM

From US11396497B2, “Proteasome inhibitors” (New Mexico Tech University Research Park Corporation, priority 2018, dated 2022)
